Numbers after ± are expanded uncertainties.
Tests used:
[1] = refractive index (Na D-line) (dimensionless); xn = mol fraction of the nth substance listed; conditions: 101 kPa, Liquid, Standard Abbe refractometry, x1 = 1
[2] = relative permittivity at various frequencies (dimensionless); xn = mol fraction of the nth substance listed; conditions: 101 kPa, Liquid, Frequency=1 MHz, Parallel plate capacitor, x1 = 1
[3] = 101 kPa, Liquid, Vibrating tube method
[4] = refractive index (Na D-line) (dimensionless); conditions: 101 kPa, Liquid, Standard Abbe refractometry
[5] = relative permittivity at various frequencies (dimensionless); conditions: 101 kPa, Liquid, Frequency=1 MHz, Parallel plate capacitor

Row | refractive index ([1]; 293.15 K) | refractive index ([1]; 298.15 K) | refractive index ([1]; 303.15 K) | relative permittivity ([2]; 293.15 K) | relative permittivity ([2]; 298.15 K) | relative permittivity ([2]; 303.15 K) | mass density ([3]; 293.15 K) | mass density ([3]; 298.15 K) | mass density ([3]; 303.15 K) | refractive index ([4]; 293.15 K) | refractive index ([4]; 298.15 K) | refractive index ([4]; 303.15 K) | relative permittivity ([5]; 293.15 K) | relative permittivity ([5]; 298.15 K) | relative permittivity ([5]; 303.15 K) | Compound
1 | 1.42425 ± 0.00033 | 1.42235 ± 0.00033 | 1.42047 ± 0.00033 | 12.019 ± 0.6 | 11.504 ± 0.59 | 11.014 ± 0.57 |  |  |  |  |  |  |  |  |  | CCCCCCCO [heptan-1-ol] + CCCCCCN
2 | 1.32862 ± 0.00033 | 1.32654 ± 0.00033 | 1.32439 ± 0.00033 | 33.569 ± 0.97 | 32.619 ± 0.96 | 33.569 ± 0.97 |  |  |  |  |  |  |  |  |  | CO [methanol] + CCCCCCN
3 |  |  |  |  |  |  | 809.85 ± 1.9 kg/m3 | 806.06 ± 1.9 kg/m3 | 802.22 ± 1.9 kg/m3 | 1.39931 ± 0.00033 | 1.39733 ± 0.00033 | 1.39529 ± 0.00033 | 18.192 ± 0.73 | 17.545 ± 0.71 | 16.933 ± 0.7 | CCCCO [butan-1-ol]
4 |  |  |  |  |  |  | 814.66 ± 2 kg/m3 | 811.03 ± 1.9 kg/m3 | 807.35 ± 1.9 kg/m3 | 1.40985 ± 0.00033 | 1.40793 ± 0.00033 | 1.4059 ± 0.00033 | 15.701 ± 0.68 | 15.102 ± 0.67 | 14.536 ± 0.65 | CCCCCO [pentan-1-ol]
5 | 1.40985 ± 0.00033 | 1.40793 ± 0.00033 | 1.4059 ± 0.00033 | 15.701 ± 0.68 | 15.102 ± 0.67 | 14.536 ± 0.65 |  |  |  |  |  |  |  |  |  | CCCCCO [pentan-1-ol] + CCCCCCN
6 |  |  |  |  |  |  | 822.37 ± 2 kg/m3 | 818.9 ± 2 kg/m3 | 815.37 ± 2 kg/m3 | 1.42425 ± 0.00033 | 1.42235 ± 0.00033 | 1.42047 ± 0.00033 | 12.019 ± 0.6 | 11.504 ± 0.59 | 11.014 ± 0.57 | CCCCCCCO [heptan-1-ol]
7 | 1.39931 ± 0.00033 | 1.39733 ± 0.00033 | 1.39529 ± 0.00033 | 18.192 ± 0.73 | 17.545 ± 0.71 | 16.933 ± 0.7 |  |  |  |  |  |  |  |  |  | CCCCO [butan-1-ol] + CCCCCCN
8 |  |  |  |  |  |  | 803.66 ± 1.9 kg/m3 | 799.68 ± 1.9 kg/m3 | 795.66 ± 1.9 kg/m3 | 1.38514 ± 0.00033 | 1.38306 ± 0.00033 | 1.38102 ± 0.00033 | 21.15 ± 0.78 | 20.449 ± 0.77 | 19.784 ± 0.76 | CCCO [propan-1-ol]
9 |  |  |  |  |  |  | 791.63 ± 1.9 kg/m3 | 786.95 ± 1.9 kg/m3 | 782.22 ± 1.9 kg/m3 | 1.32862 ± 0.00033 | 1.32654 ± 0.00033 | 1.32439 ± 0.00033 | 33.569 ± 0.97 | 32.619 ± 0.96 | 31.652 ± 0.95 | CO [methanol]
10 | 1.38514 ± 0.00033 | 1.38306 ± 0.00033 | 1.38102 ± 0.00033 | 21.15 ± 0.78 | 20.449 ± 0.77 | 19.784 ± 0.76 |  |  |  |  |  |  |  |  |  | CCCO [propan-1-ol] + CCCCCCN
11 |  |  |  |  |  |  | 764.43 ± 1.8 kg/m3 | 760.19 ± 1.8 kg/m3 | 755.9 ± 1.8 kg/m3 | 1.41808 ± 0.00033 | 1.41563 ± 0.00033 | 1.41321 ± 0.00033 | 3.964 ± 0.37 | 3.904 ± 0.37 | 3.846 ± 0.36 | CCCCCCN [1-hexanamine]

— the NIST ThermoML archive (doi:10.1016/j.fluid.2018.04.007)
